Assay results taken from patent US20220096592A1, “PIC1 VARIANTS WITH IMPROVED SOLUBILITY AND METHODS OF USING THE SAME” (priority 2019, published 2022).
Entries after “also recorded” stand apart in the source; their conditions may differ. Where a SMILES comes first, the peptide text is derived from it. [ ]: non-standard residue; d: D form. Sar = CNCC(=O)O

Columns and labels:
[1] = test system: antibody-initiated complement activation (ABO incompatible hemolysis)
Protocol: (§1) For hemolytic complement assays, human red blood cells (RBCs) from type AB donors were purified, washed and standardized to 1×10^9 cells/ml, as previously described. Human sera from type 0 donors at a 20% final concentration was combined with […] PIC1 or sarcosine variant peptides, and the volume was brought up to 0.15 ml with GVBS^++ and […] RBCs. For factor B-depleted sera hemolytic assays, a final of 0.005% factor B depleted sera was incubated with […] PIC1 or sarcosine variant peptides with 0.1 ml antibody-sensitized sheep red blood cells (EA) in a final volume of 0.75 ml GVBS^++. The samples were incubated for one hour at 37° C. Then, 1.0 ml of GVBS^−− was added to the factor B-depleted samples to stop the reaction. The samples were spun at 3,000 rpm for 5 minutes. The supernatant was then collected and read at 412 nm. An analysis was performed to represent the values as a percent of the positive control, which consists of human 0 sera and AB red blood cells in GVBS^++ buffer.
(§2) An evaluation of the extent to which the peptide variants inhibit antibody-initiated complement activation was performed. The peptide variants were tested in the following two hemolytic assays: (i) an ABO incompatibility ex vivo assay and (ii) a classical pathway CH50-type assay in factor B-depleted sera.
In the ABO incompatibility hemolytic assay, purified erythrocytes from a ‘type AB+’ donor were incubated with sera from a ‘type 0’ subject containing anti-A and anti-B antibodies; peptides were tested at 1.8 mM.

myeloperoxidase (MPO) = molecular target: T1, myeloperoxidase (MPO) (Homo sapiens, UniProt P05164); assay: MPO peroxidase activity, TMB-based assay; format: biochemical; details: dose-response and half-maximal inhibition, FIG. 2A, 2B
T1 construct: purchased Lee BioSolutions (Maryland Heights, Mo.)
T1 sequence (P05164 279-745 limits assumed): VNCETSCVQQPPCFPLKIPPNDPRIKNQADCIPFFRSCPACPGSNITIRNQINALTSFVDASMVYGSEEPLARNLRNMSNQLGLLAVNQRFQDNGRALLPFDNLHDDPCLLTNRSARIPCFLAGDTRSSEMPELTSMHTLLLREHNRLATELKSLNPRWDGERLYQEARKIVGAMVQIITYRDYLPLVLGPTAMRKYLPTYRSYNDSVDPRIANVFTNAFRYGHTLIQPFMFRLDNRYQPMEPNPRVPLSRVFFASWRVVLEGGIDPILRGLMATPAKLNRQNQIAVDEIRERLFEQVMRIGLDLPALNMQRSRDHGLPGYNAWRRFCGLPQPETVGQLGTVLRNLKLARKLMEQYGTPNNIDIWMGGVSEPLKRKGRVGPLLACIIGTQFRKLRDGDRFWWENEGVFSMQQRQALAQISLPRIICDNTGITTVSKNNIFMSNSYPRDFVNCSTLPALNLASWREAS
T1 sequence (P05164 165-273 limits assumed): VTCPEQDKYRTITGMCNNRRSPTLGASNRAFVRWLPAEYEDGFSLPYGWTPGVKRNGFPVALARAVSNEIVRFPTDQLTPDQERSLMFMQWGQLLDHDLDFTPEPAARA
Protocol: PIC1 and sarcosine variants were diluted to 25 mg/ml and then serially titrated in a 96 well plate at a volume of 0.02 ml. Myeloperoxidase (MPO) was diluted to 20 μg/ml and 0.02 ml was added to the titrated peptides. TMB (3,3′,5,5′-tetramethylbenzidine) (0.1 ml) was added to each well for 2 minutes, followed by 0.1 ml of 2.5 N H2SO4 for another 2 minutes, and then read on a 96 well plate reader (BioTek) at 450 nm.
In this assay, the variants were tested for MPO inhibition over a range of concentrations. Strong MPO inhibition was found for all variants with the exception of the no-cysteine variant (C9,10).

MPO heme ring = molecular target: T2, MPO heme ring (Homo sapiens, UniProt P05164); assay: MPO heme ring oxidative degradation (absorbance 300-550 nm); format: biochemical; details: peptides at 3 mM, with H2O2, FIG. 3A-3H
T2 construct: purchased Lee BioSolutions (Maryland Heights, Mo.)
T2 sequence (P05164 279-745 limits assumed): as the sequence (P05164 279-745 limits assumed) above
T2 sequence (P05164 165-273 limits assumed): as the sequence (P05164 165-273 limits assumed) above
Protocol: In a 96 well plate, 0.025 ml of 1.7 mg/ml MPO was combined with 0.00125 ml of 0.5% H2O2 and 3 mM PIC1 or sarcosine variant peptides in a total volume of 0.125 ml PBS and left to incubate at room temperature for 2 minutes. Using a 96 well plate reader, the wells were scanned for absorbance from 300-550 nm to generate curves reflecting the iron state in the MPO heme ring, as previously reported.
The ability of the variants to prevent degradation of the heme ring in the MPO molecule was then evaluated. […] Degradation of the heme ring can be evaluated via spectrometric measurements of absorption of wavelengths from 300 to 550 nm.

[2] = test system: classical complement pathway; details: peptides at 0.4 mM, compared with PA-dPEG24, FIG. 1B
Protocol: as §1, §2
A CH50-type hemolytic assay was then performed. with antibody-sensitized sheep erythrocytes, isolating the classical pathway by utilizing factor B-depleted sera; peptides were tested at 0.4 mM.

C1q = molecular target: T3, C1q (Homo sapiens, UniProt P02745+P02746+P02747); assay: ELISA-type assay of peptide binding to C1q; details: binding curves and half-maximal binding, FIG. 1C, 1D; listed as 18
T3 construct: purchased Complement Technology (Tyler, Tex.)
T3 sequence (P02745 23-245): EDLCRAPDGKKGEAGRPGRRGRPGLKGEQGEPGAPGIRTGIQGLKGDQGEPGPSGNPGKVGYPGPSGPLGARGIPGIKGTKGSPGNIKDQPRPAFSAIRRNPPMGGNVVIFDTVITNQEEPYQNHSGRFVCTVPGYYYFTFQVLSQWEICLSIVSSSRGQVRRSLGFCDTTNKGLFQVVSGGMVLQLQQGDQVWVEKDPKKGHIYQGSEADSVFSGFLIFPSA
T3 sequence (P02746 28-253): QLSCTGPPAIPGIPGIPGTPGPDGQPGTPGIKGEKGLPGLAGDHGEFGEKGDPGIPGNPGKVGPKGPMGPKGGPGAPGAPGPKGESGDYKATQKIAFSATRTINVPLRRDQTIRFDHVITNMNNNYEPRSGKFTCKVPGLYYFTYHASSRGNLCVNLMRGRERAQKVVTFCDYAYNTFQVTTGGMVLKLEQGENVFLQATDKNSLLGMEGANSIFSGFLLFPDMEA
T3 sequence (P02747 29-245): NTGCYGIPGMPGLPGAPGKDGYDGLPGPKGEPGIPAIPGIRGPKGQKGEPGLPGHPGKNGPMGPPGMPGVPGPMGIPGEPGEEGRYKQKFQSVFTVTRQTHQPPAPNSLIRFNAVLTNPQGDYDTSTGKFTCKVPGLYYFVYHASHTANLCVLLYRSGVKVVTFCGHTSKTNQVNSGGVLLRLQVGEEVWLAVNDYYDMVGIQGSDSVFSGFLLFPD
Protocol: (§3) The plates were washed with PBST (phosphate buffered saline+0.1% Tween) and then blocked with 1% gelatin/PBS for 2 hours at room temperature. After washing, the plates were incubated with PA or sarcosine variant peptides starting at 2.5 mg/ml and then serially diluted in 1% gelatin/PBS for 1 hour at room temperature. After washing, the plates were probed with rabbit anti-PA (developed with Cocalico Biologicals, Reamstown, Pa.) at 1:1000 in 1% gelatin/PBS for 1 hour, room temperature, followed by a goat anti-rabbit HRP (Sigma Aldrich, St Louis, Mo.) at 1:1,000 in 1% gelatin/PBS for 1 hour at room temperature with a washing step in between. Wells were developed using TMB substrate solution, stopped using 1 N H2SO4, and read at 450 nm in a plate reader.
Higher concentrations of DMSO interfere with the detecting reagents resulting in a partial binding curve.

[3] = Total Antioxidant Capacity (TAC) assay; details: 0.03-0.25 mM, copper reducing equivalents, FIG. 4
Protocol: The TAC (Total Antioxidant Capacity) Assay (Cell Biolabs, Inc. San Diego, Calif.) was used to measure the antioxidant capacity of the sarcosine variants based on the reduction of copper (II) to copper (I). The assay was performed according to the recommended kit protocol.
Antioxidant activity was measured in copper reducing equivalents (CRE). Peptides were tested over a range of concentrations from 0.03-0.25 mM then compared to the standard.

MPO = molecular target: T4, MPO (Homo sapiens, UniProt P05164); assay: plate-based assay of binding to solid phased MPO; details: binding curves and half-maximal binding, FIG. 2C, 2D
T4 construct: purchased Lee BioSolutions (Maryland Heights, Mo.)
T4 sequence (P05164 279-745 limits assumed): as the sequence (P05164 279-745 limits assumed) above
T4 sequence (P05164 165-273 limits assumed): as the sequence (P05164 165-273 limits assumed) above
Protocol: as §3
A plate-based assay was performed to test the binding of the peptide variants to solid phased MPO. MPO binding was identified for all variants, except for C9,10.

purified C1q = purified C1q (UniProt P02745); assay: cell-based or functional assay
purified C1q, sequence (P02745 23-245 limits assumed, chain 1 of 3): as the sequence (P02745 23-245) above
purified C1q, sequence (P02746 28-253 limits assumed, chain 2 of 3, further chain): as the sequence (P02746 28-253) above
purified C1q, sequence (P02747 29-245 limits assumed, chain 3 of 3, further chain): as the sequence (P02747 29-245) above

Compound | complement inhibition overall, in words ([1]; both hemolytic complement inhibition assays) | inhibition of ABO incompatible hemolysis, in words ([1]; peptides at 1.8 mM, compared with PA-dPEG24, FIG. 1A) | MPO inhibition, in words (myeloperoxidase (MPO)) | inhibition of heme ring degradation, in words (MPO heme ring) | inhibition of classical pathway hemolysis, in words [2] | binding to C1q, in words (C1q) | total antioxidant capacity, in words [3] | binding to MPO, in words (MPO) | inhibition of classical pathway hemolysis in factor B-depleted sera, more than PA-dPEG24 (peptides at 0.4 mM) (purified C1q)
CC[C@H](C)[C@H](N)C(=O)N[C@@H](C)C(=O)N[C@@H](CC(C)C)C(=O)N[C@H](C(=O)N[C@@H](CC(C)C)C(=O)N[C@@H](CCC(=O)O)C(=O)N1CCC[C@H]1C(=O)N(C)CC(=O)N[C@@H](CS)C(=O)N[C@@H](CS)C(=O)N[C@@H](CCC(N)=O)C(=O)N[C@@H](CCC(=O)O)C(=O)N[C@@H](CCCNC(=N)N)C(=O)N[C@@H](C)C(=O)N[C@@H](C)C(=O)O)[C@@H](C)CC [I8, H2N-IALILEP(Sar)CCQERAA-OH] (H-IALILEP[Sar]CCQERAA-OH) | superior inhibition of antibody-initiated complement activation and hemolysis compared with PA and other peptide variants | inhibited ABO incompatible hemolysis to a greater extent than did the PA-dPEG24 | greatest potency among the different variants | near perfect preservation of the heme ring absorption spectrum | superior activity | superior binding to C1q as compared with the other peptides; also recorded: slightly superior to that of PA-dPEG24 | antioxidant capacity approaching that of PA-dPEG24 | superior binding to MPO, as compared with the other sarcosine variants | 
PA-I8Sar (H2N-IALILEP(Sar)CCQERAA-OH) (peptide) |  |  |  |  |  |  |  |  | 75%
